Experimental data reported in US8227612B2, “Quinoline compound and pharmaceutical composition, preparation method and uses thereof” (Shanghai Institute of Pharmaceutical Industry, priority 2008, dated 2012).

Test system: hyperlipidemia quail
Experiment: Lipid-lowering in vivo experiments in hyperlipidemia quail
Settings: for CHO / H/L / HDL-C / LDL-C / TG: oral, blood after four weeks hypercholesterol diet
Experimental: Lipid-lowering in vivo experiments are made in hyperlipidemia quail with the compounds [NT] according to the present invention. Atorvastatin (20 mg/kg) were used as the positive control. Two groups of dosage (Low: 5 mg/kg, High: 20 mg/kg) of the ten compounds of [NT] were tested. After one week feeding with normal diet, except for the normal control group, the model control group and the tested groups of quails were fed with hypercholesterol diet for four weeks, and then the blood was collected respectively for testing the content of […] including triglyceride, cholesterol, low density lipoprotein and high density lipoprotein.

[1] = oral administration, hyperlipidemia quail

| Compound | CHO (High: 20 mg/kg) [mmol/L] | H/L (High: 20 mg/kg) | HDL-C (High: 20 mg/kg) [mmol/L] | LDL-C (High: 20 mg/kg) [mmol/L] | TG (High: 20 mg/kg) [mmol/L] | CHO (Low: 5 mg/kg) [mmol/L] | H/L (Low: 5 mg/kg) | HDL-C (Low: 5 mg/kg) [mmol/L] | LDL-C (Low: 5 mg/kg) [mmol/L] | TG (Low: 5 mg/kg) [mmol/L] | lipid-lowering effect (in words) [1] | way of reducing lipidemia (in words) [1] |
| --- | --- | --- | --- | --- | --- | --- | --- | --- | --- | --- | --- | --- |
| CC(C)c1c(C(=O)Nc2ccccc2)c(-c2ccccc2)c(-c2ccc(F)cc2)n1CC[C@@H](O)C[C@@H](O)CC(=O)O [Atorvastatin, reference compound] | 6.51 | 2.19 | 4.39 | 2.51 | 0.76 | – | – | – | – | – | – | – |
| CC(C)Sc1ccc(-c2cc3c(-c4ccc(SC(C)C)cc4)c(/C=C/[C@@H](O)C[C@@H](O)CC(=O)O)cnc3c(-c3ccc(SC(C)C)cc3)c2-c2ccc(SC(C)C)cc2)cc1 [Compound A1, (3R,5S)-7-[4,6,7,8-tetra-(4-isopropylthiophenyl)quinoline-3-yl]-3,5-dihydroxy-6(E)-heptenoic acid] | 8.05 | 1.54 | 5.31 | 3.63 | 0.51 | 8.72 | 1.91 | 5.84 | 3.99 | 0.59 | obvious lipid-lowering effect | – |
| COc1cccc(Sc2cc3ncc(/C=C/[C@@H](O)C[C@@H](O)CC(=O)[O-])c(Sc4cccc(OC)c4)c3cc2F)c1.COc1cccc(Sc2cc3ncc(/C=C/[C@@H](O)C[C@@H](O)CC(=O)[O-])c(Sc4cccc(OC)c4)c3cc2F)c1.[Ca+2] [Compound A5] | 10.55 | 1.06 | 5.35 | 6.40 | 0.58 | 9.66 | 1.29 | 5.35 | 5.07 | 1.95 | obvious lipid-lowering effect | – |
| CC(C)Sc1ccc(-c2c(/C=C/[C@@H](O)C[C@@H](O)CC(=O)[O-])cnc3c(F)c(F)c(F)cc23)cc1.CC(C)Sc1ccc(-c2c(/C=C/[C@@H](O)C[C@@H](O)CC(=O)[O-])cnc3c(F)c(F)c(F)cc23)cc1.[Ca+2] [Compound A6, (3R,5S)-7-[6,7,8-trifluoro-4-(4-isopropylthiophenyl)quinoline-3-yl]-3,5-dihydroxy-6(E)-heptenoic acid hemi calcium salt] | 8.66 | 1.37 | 4.74 | 3.66 | 4.47 | 8.65 | 1.21 | 4.89 | 4.61 | 0.70 | obvious lipid-lowering effect | – |
| O=C([O-])C[C@H](O)C[C@H](O)/C=C/c1cnc2c(F)c(F)c(F)cc2c1Sc1ccc(F)cc1.O=C([O-])C[C@H](O)C[C@H](O)/C=C/c1cnc2c(F)c(F)c(F)cc2c1Sc1ccc(F)cc1.[Ca+2] [Compound A8] | 5.57 | 2.21 | 3.73 | 1.94 | 0.45 | 9.11 | 1.58 | 4.75 | 3.46 | 1.50 | obvious lipid-lowering effect | – |
| O=C([O-])C[C@H](O)C[C@H](O)/C=C/c1cnc2c(Oc3ccccc3)c(Oc3ccccc3)c(Oc3ccccc3)cc2c1Oc1ccccc1.O=C([O-])C[C@H](O)C[C@H](O)/C=C/c1cnc2c(Oc3ccccc3)c(Oc3ccccc3)c(Oc3ccccc3)cc2c1Oc1ccccc1.[Ca+2] [Compound A9, (3R,5S)-7-[4,6,7,8-tetra-phenoxyquinoline-3-yl]-3,5-dihydroxy-6(E)-heptenoic acid hemi calcium salt] | 9.18 | 1.54 | 4.98 | 4.08 | 1.26 | 9.75 | 1.56 | 4.98 | 5.16 | 1.24 | obvious lipid-lowering effect | – |
| COc1cccc(Sc2c(/C=C/[C@@H](O)C[C@@H](O)CC(=O)[O-])cnc3cc(Cl)c(F)cc23)c1.COc1cccc(Sc2c(/C=C/[C@@H](O)C[C@@H](O)CC(=O)[O-])cnc3cc(Cl)c(F)cc23)c1.[Ca+2] [Compound A11] | 8.53 | 1.33 | 5.06 | 4.30 | 0.42 | 11.63 | 1.24 | 6.32 | 6.51 | 0.56 | obvious lipid-lowering effect | – |
| O=C([O-])C[C@H](O)C[C@H](O)/C=C/c1cnc2c(F)c(Oc3ccccc3)c(F)cc2c1Oc1ccccc1.O=C([O-])C[C@H](O)C[C@H](O)/C=C/c1cnc2c(F)c(Oc3ccccc3)c(F)cc2c1Oc1ccccc1.[Ca+2] [Compound A12, (3R,5S)-7-[6,8-difluoro-4,7-di-(phenoxy)quinoline-3-yl]-3,5-dihydroxy-6(E)-heptenoic acid hemi calcium salt] | 6.25 | 2.11 | 3.77 | 2.52 | 0.97 | 12.40 | 1.43 | 6.21 | 6.75 | 0.54 | obvious lipid-lowering effect | – |
| CC(C)c1ccc(Sc2cc3ncc(/C=C/[C@@H](O)C[C@@H](O)CC(=O)[O-])c(Sc4ccc(C(C)C)cc4)c3cc2F)cc1.CC(C)c1ccc(Sc2cc3ncc(/C=C/[C@@H](O)C[C@@H](O)CC(=O)[O-])c(Sc4ccc(C(C)C)cc4)c3cc2F)cc1.[Ca+2] [Compound A13] | 8.88 | 1.79 | 5.64 | 3.95 | 0.35 | 14.13 | 0.92 | 6.93 | 9.23 | 0.56 | obvious lipid-lowering effect | reduces lipidemia by lowering TG and increasing H/L ratio |
| O=C([O-])C[C@H](O)C[C@H](O)/C=C/c1cnc2cc(Cl)c(F)cc2c1Oc1ccc(F)cc1.O=C([O-])C[C@H](O)C[C@H](O)/C=C/c1cnc2cc(Cl)c(F)cc2c1Oc1ccc(F)cc1.[Ca+2] [Compound A14, (3R,5S)-7-[6-fluoro-7-chloro-4-(4-fluorophenoxy)quinoline-3-yl]-3,5-dihydroxy-6(E)-heptenoic acid hemi calcium salt] | 7.61 | 1.44 | 4.66 | 3.62 | 0.96 | 11.64 | 1.15 | 6.63 | 6.40 | 0.74 | obvious lipid-lowering effect | – |
